Source: patent publication US20220072022A1, “ANTI-AGING AGENT OR LIFE-EXTENDING AGENT” (StaGen Co., Ltd., priority 2019, published 2022)

Assays:
[1] = system: C. elegans wild type strain (N2, Bristrol); assay: Effect of febuxostat on nematode lifespan, UV-killed Escherichia coli plus kanamycin (Example 3); assay type: in vivo; conditions: N2, febuxostat 5, 10, 20 μg/mL, FIG. 4
Protocol: The effect of febuxostat on lifespan was examined using a wild type strain (N2, Bristrol) of C. elegans as a nematode. In addition, mitochondria of the nematode cultured in the absence and presence of febuxostat were compared under electron microscopy. The culturing method and culturing conditions for nematodes (N2) were almost the same as those in Example 1 except for the method for treating the food added to the medium. Generally, Escherichia coli is added to the NGM plate as food for nematodes; however, when Escherichia coli grows, it may affect metabolites, etc. Therefore, a method of adding the antibiotic ampicillin to stop the growth of Escherichia coli is performed. However, it cannot be completely denied that the presence of ampicillin in the NGM plate had some effect. Therefore, instead of adding ampicillin, Escherichia coli was killed by being irradiated with ultraviolet rays, and kanamycin was further added. In this way, Escherichia coli as food was treated differently from Example 1, and it was checked whether the same experimental results as in Example 1 could be obtained. The concentration of febuxostat added to the NGM plate was 5, 10, 20 μg/mL.

[2] = system: mitochondria of the muscle of C. elegans (N2); assay: Effect of febuxostat on mitochondrial morphology in nematode muscle, electron microscopy (Example 3); assay type: in vivo; conditions: cultured 18 days in the presence of 20 μg/mL of febuxostat, compared with FBX(−), FIG. 5
Protocol: The effect of febuxostat on lifespan was examined using a wild type strain (N2, Bristrol) of C. elegans as a nematode. In addition, mitochondria of the nematode cultured in the absence and presence of febuxostat were compared under electron microscopy.
On the 18th day of culturing, nematodes were fixed by the following method. An M9 buffer comprising 8% ethanol was dropped on a slide glass, and the nematodes were placed therein and allowed to stand until the nematodes stopped moving (about 5 minutes). Next, a fixing solution was placed on another slide glass, and the nematodes that had stopped moving were transferred to the fixing solution. The fixing solution comprises 2% paraformaldehyde+2% glutaraldehyde/0.1M phosphate buffer (pH 7.4), and was adjusted prior to use.
Subsequently, a 22 G injection needle was used to cut the nematodes in the following procedure.
First, the cranial side was cut from the pharynx, and then amputation was performed around Vulva. In this experiment, in order to observe the mitochondria of the muscle behind Vulva with an electron microscope, only the caudal side was collected and placed in an Eppendorf tube comprising a fixing solution (4° C.)
Observation with an electron microscope was carried out by requesting the Hanaichi UltraStructure Research Institute (Okazaki City, Aichi Prefecture) using an electron microscope HITACHI H-7600 (100 kV).

[3] = system: C. elegans daf-16 gene variant strain (mu86); assay: Extension of C. elegans (nematode) lifespan by febuxostat, daf-16 variant strain (Example 1); assay type: in vivo
Protocol: (§1) Extension of lifespan by febuxostat was examined using a wild type strain (N2, Bristrol) and a daf-16 gene (nematode ortholog of human transcription factor FOXO; a typical example of shortened lifespan in nematode variant due to a transcription factor that is suppressed by insulin signals) variant strain (mu86). Both strains were bred at 20° C.
(§2) In order to keep the developmental stage of the strains used for lifespan measurement constant, it was waited until food (Escherichia coli) was exhausted and growth of first instar larvae stopped. The nematode was cut and planted together with agar in a petri dish with food.
(§3) Ampicillin (100 μg/ml) was added to a 6 cm NGM plate (standard medium for nematode culture) to inhibit the growth of the food Escherichia coli strain and its associated metabolism, and OP50 (the food Escherichia coli strain) and FBX were added ([…]).
(§4) When the cut and planted nematodes became adults, they were washed out of the petri dish using M9 buffer and collected. The nematodes were suspended in Eppendorf tubes. An equal amount of bleach solution (a mixture of 4N NaOH, hypochlorous acid solution, and M9 buffer at a ratio of 2:3:5) to the nematode suspension was added and mixed. […]
(§5) Life or death was determined for each individual every other day, and the data was recorded. […]
(§6) The lifespan tracking was completed when it was determined that all nematodes had died.

[4] = system: C. elegans wild type strain (N2, Bristrol); assay: Extension of C. elegans (nematode) lifespan by febuxostat, wild type strain (Example 1); assay type: in vivo; conditions: wild type strain N2, febuxostat 10 mg/ml, 20° C., FIG. 2
Protocol: as §1, §2, §3, §4, §5, §6

C. elegans = conditions: Non-Patent Documents 13 to 16; cited from earlier work

| SMILES | lifespan of nematodes [1] | morphology of mitochondria in the muscle [2] | lifespan compared with the wild type strain ([3]; daf-16 gene variant strain (mu86) with febuxostat) | lifespan ([3]; daf-16 gene variant strain (mu86), febuxostat 10 mg/ml, 20° C., FIG. 3) | lifespan [4] | lifespan in C. elegans (C. elegans) |
| --- | --- | --- | --- | --- | --- | --- |
| Cc1nc(-c2ccc(OCC(C)C)c(C#N)c2)sc1C(=O)O [febuxostat] | lifespan of nematodes is extended | morphology of mitochondria is maintained almost normally | did not reach the same length of lifespan as that of the wild type strain | showed an extension of lifespan | showed an extension of lifespan |  |
| CN(C)C(=N)N=C(N)N [metformin] |  |  |  |  |  | prolongs the lifespan |
